Molecular target: T1, MRSA pyruvate kinase (PK) (Staphylococcus aureus, UniProt Q2FG40)
T1 construct: gene pyk; His-tagged MRSA PK from S. aureus USA300 LAC *, pET-28a, expressed in E. coli
T1 sequence (Q2FG40 1-585): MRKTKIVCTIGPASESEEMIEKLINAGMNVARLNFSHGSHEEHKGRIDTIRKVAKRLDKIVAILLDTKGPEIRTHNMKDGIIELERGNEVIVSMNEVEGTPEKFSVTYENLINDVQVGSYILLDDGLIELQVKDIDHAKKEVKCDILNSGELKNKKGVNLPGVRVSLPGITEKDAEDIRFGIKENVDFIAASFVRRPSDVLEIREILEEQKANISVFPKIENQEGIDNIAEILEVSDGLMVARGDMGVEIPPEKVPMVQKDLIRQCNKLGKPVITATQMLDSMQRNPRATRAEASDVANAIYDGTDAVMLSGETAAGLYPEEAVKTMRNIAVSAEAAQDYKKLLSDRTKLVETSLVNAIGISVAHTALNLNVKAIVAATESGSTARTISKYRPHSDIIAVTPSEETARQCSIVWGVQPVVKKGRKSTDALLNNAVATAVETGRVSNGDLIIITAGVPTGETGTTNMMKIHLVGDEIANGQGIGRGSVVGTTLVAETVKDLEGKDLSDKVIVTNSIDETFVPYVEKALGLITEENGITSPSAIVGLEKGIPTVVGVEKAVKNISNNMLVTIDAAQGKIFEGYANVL
Assay: Kinase-Glo luminescence assay of ATP formed by purified PK from PEP and ADP
Type: biochemical

Row | IC50 | Compound
1 | 1600 nM | Oc1ccc2c(-c3c4cc(F)sc4cc4[nH]c5cc(O)ccc5c34)c[nH]c2c1 [3c, 2-Fluoro-4-(6-hydroxy-1H-indol-3-yl)-9H-thieno[2,3-b]carbazol-7-ol]
2 | 2100 nM | Fc1cc2c(-c3c[nH]c4ccc(Cl)cc34)c3c(cc2s1)[nH]c1ccc(Cl)cc13 [3f, 6-Chloro-4-(5-chloro-1H-indol-3-yl)-2-fluoro-9H-thieno[2,3-b]carbazole]
3 | 2300 nM | Fc1cc2cc3[nH]c4cc(Cl)ccc4c3c(-c3c[nH]c4cc(Cl)ccc34)c2s1 [4f, 7-Chloro-10-(6-chloro-1H-indol-3-yl)-2-fluoro-5H-thieno[3,2-b]carbazole]
4 | 3500 nM | Fc1cc2c(-c3c[nH]c4ccc(Br)cc34)c3[nH]c4ccc(Br)cc4c3cc2s1 [6d, 8-Bromo-4-(5-bromo-1H-indol-3-yl)-2-fluoro-5H-thieno[3,2-b]carbazole]

From publication PMC9502754, “Novel Effective Fluorinated Benzothiophene-Indole Hybrid Antibacterials against S. aureus and MRSA Strains” (Pharmaceuticals, 2022)
